Measurements published in patent US8486991B2, “Enantiomerically pure phosphoindoles as HIV inhibitors” (Idenix Pharmaceuticals, Inc., priority 2006, dated 2013).
Where two headings read alike, the source gives them in different places. Values belong to the compound of their own block, whether it stands above or below them. *1 amine or outer side, *2 acyl side, *3 side chain or, on linkers, in order; H or OH if unused. Where a SMILES comes first, the peptide text is derived from it. Bridges are numbered along the chain shown (N, C = ends). Roman numbers before positions name the chains, in order. [ ]: non-standard residue; d: D form. Actinocin(9to1) = Cc1c2oc3c(C)ccc(C(=O)[*:1])c3nc-2c(C(=O)[*:2])c(N)c1=O; NMeV = CN[C@H](C(=O)O)C(C)C; Sar = CNCC(=O)O

Assays:
[1] = test system: HIV-2 ROD; assay: HIV-2 ROD WT in H9 cell assay; assay type: cell-based; details: Human immunodeficiency virus 2, H9; Table 18; highest concentration assayed 1.25 μM; read-out: EC50 Values
Description: The susceptibility of HIV type 2 ROD in H9 cells to Compound I and Compound III was determined against zidovudine (AZT) as a control.

[2] = target: T1, human DNA polymerase gamma (Homo sapiens, UniProt P54098); assay: Human cellular DNA polymerase gamma assay; assay type: biochemical
T1 sequence (P54098 1-1239): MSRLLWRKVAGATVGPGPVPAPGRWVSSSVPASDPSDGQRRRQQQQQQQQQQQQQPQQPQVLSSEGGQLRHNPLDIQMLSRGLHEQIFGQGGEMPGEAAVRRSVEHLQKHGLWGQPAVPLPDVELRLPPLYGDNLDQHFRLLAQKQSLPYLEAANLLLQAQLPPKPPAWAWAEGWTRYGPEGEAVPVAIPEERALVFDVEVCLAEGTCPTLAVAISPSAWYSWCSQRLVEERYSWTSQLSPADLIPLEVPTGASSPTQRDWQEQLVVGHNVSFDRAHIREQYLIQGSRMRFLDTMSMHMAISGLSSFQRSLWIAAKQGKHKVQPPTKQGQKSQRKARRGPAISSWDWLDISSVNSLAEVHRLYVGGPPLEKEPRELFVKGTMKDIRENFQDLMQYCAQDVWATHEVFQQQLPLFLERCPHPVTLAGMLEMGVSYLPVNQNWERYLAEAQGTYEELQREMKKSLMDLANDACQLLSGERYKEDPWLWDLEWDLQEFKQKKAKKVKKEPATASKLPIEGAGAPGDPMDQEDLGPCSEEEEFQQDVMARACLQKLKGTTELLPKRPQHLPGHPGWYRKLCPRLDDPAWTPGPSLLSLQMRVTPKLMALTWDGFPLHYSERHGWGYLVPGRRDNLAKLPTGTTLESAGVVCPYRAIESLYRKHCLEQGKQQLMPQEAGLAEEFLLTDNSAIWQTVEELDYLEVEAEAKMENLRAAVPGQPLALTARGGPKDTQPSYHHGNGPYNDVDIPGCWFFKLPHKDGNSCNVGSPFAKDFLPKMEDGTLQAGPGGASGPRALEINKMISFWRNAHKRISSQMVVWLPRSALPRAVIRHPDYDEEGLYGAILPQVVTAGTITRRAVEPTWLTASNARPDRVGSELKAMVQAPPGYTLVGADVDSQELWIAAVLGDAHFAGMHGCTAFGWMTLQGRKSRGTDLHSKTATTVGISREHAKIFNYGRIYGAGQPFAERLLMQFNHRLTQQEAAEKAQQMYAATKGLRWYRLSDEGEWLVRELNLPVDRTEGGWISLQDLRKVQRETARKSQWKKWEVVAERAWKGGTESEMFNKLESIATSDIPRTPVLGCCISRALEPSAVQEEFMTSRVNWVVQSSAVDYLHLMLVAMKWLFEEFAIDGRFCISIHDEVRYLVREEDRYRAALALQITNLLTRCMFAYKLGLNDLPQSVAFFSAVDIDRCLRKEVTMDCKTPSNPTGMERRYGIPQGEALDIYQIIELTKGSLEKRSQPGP
Description: (§1) HIV RT, like other viral polymerase, shares limited structural homology with the cellular DNA polymerases responsible for normal nuclear and mitochondrial DNA synthesis and repair. This raises the formal possibility that inhibitors of HIV RT might inhibit cellular polymerases, resulting in cellular toxicity. In particular, inhibition of polymerase gamma has the potential to result in mitochondrial toxicity. The ability of Compound I and Compound III to inhibit cellular DNA polymerases was assessed using standard in vitro assays (Table 5).

[3] = target: human DNA polymerase beta (Homo sapiens, UniProt P06746); assay: Human cellular DNA polymerase beta assay; assay type: biochemical
Description: as §1

[4] = target: T2, human DNA polymerase alpha (Homo sapiens, UniProt P09884); assay: Human cellular DNA polymerase alpha assay; assay type: biochemical
T2 sequence (P09884 1-1462): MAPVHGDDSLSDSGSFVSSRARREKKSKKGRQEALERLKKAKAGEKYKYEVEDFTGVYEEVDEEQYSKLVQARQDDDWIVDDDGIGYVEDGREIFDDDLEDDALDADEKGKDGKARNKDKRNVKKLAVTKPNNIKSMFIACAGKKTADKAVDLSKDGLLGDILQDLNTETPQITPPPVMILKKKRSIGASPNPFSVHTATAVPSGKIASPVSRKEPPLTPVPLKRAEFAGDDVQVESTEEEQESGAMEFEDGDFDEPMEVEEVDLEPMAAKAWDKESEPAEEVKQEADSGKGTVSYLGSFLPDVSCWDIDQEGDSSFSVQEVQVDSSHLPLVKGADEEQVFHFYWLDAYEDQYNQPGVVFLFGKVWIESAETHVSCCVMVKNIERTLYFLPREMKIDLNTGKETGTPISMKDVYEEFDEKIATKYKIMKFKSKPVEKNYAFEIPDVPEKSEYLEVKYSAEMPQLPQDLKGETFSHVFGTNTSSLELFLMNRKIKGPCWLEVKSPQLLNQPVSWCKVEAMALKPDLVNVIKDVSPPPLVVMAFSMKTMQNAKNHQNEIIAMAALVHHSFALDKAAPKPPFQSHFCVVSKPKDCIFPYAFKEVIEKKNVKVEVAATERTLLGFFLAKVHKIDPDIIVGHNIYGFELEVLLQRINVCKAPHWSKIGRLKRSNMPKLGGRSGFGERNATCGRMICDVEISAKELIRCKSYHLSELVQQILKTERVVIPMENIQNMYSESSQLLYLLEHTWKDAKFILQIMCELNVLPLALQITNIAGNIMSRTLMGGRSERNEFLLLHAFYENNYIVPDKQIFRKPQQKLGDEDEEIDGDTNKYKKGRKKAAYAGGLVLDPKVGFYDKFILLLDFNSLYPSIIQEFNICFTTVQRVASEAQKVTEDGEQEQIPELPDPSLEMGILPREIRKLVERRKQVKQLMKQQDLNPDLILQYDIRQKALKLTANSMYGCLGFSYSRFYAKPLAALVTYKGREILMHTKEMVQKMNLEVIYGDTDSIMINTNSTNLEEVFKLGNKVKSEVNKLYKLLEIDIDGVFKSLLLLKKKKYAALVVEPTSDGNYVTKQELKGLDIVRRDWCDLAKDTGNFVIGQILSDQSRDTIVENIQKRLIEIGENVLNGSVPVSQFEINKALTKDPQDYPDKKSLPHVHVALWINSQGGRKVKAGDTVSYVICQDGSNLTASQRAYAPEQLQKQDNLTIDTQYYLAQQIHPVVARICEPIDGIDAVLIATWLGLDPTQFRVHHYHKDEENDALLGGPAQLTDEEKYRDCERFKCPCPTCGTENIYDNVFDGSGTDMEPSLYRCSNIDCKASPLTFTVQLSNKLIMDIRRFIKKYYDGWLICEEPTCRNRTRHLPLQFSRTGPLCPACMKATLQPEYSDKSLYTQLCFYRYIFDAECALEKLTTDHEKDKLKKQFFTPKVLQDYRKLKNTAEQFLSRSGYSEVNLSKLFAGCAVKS
Description: as §1

[5] = test system: HIV-1 BH10 K103N mutant virus; assay: microbe, parasite or virus in culture; assay type: cell-based; details: Human immunodeficiency virus 1, MT4, read-out: EC50, K103N, Example 16 comparative tables; unit inferred
[6] = test system: HIV-1 BH10 wild-type virus; assay: CPE / cell protection assay, MT-4 cells, BH10 wild-type; assay type: cell-based; details: Human immunodeficiency virus 1, MT4; Cell Protection Assay tables; unit inferred; read-out: EC50, BH10
Description: (§2) The activity of the compounds was also assessed with the same virus and cell type using a different assay readout based on cytopathic effect (CPE).
(§3) MT-4 cells (Source: NIH Catalog #120) were seeded onto 96-well cell culture plates (1×10^4 cells per well in 50 μL).
(§4) The final DMSO concentration in the assay was 0.5% in 120 μL. Cell cultures were then incubated at 37° C./5% CO2 for 4 days. Then, Cell Titer 96 AQueous One Solution Cell Proliferation Assay (Promega) was used to measure cell viability. Briefly, the One Solution Reagent was added directly to culture wells (20 μL/well), incubated for 5 hours, and the absorbance was recorded at 492 nm using the Sunrise Tecan Spectrophotometer.
(§5) The EC50 values were determined from the percent inhibition versus concentration data using a sigmoidal non-linear regression analysis based on four parameters with Tecan Magellan software.

[7] = target: CYP3A4 (Homo sapiens, UniProt P08684); assay: Recombinant CYP450 inhibition, fluorometric, CYP3A4; assay type: in vitro ADME; design: from tissue; host or cells: pooled human liver microsomes
CYP3A4, sequence (P08684 whole entry, the tested form may be a part): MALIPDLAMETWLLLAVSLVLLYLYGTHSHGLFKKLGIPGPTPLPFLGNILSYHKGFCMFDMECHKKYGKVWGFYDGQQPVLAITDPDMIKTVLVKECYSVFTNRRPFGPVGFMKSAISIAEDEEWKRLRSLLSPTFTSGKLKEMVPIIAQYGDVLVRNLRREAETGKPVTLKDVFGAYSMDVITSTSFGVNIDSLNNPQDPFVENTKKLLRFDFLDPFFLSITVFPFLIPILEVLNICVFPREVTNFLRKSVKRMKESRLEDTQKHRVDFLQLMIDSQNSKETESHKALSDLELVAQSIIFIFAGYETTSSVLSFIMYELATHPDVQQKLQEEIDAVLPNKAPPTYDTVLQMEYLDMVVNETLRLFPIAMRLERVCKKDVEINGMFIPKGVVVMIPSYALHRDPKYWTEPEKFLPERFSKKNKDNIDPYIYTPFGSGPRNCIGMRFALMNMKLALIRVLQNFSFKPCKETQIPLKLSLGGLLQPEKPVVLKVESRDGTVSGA
Description: (§6) Compounds were assayed using recombinant human microsomal proteins with fluorometric substrates. Signal was measured with a Fusion plate reader utilizing the appropriate excitation and emission wavelength set to detect the specific metabolite: […]

[8] = test system: HIV-1 BH10 K103N mutant virus; assay: microbe, parasite or virus in culture; assay type: cell-based; details: Human immunodeficiency virus 1, MT4, read-out: EC50, K103N
Description: as §2, §3, §4, §5

[9] = test system: HIV-1 BH10 wild-type virus; assay: microbe, parasite or virus in culture; assay type: cell-based; details: Human immunodeficiency virus 1, MT4, read-out: EC50, BH10, Example 16 comparative tables; unit inferred; several lines per compound
[10] = target: CYP2D6 (Homo sapiens, UniProt P10635); assay: Recombinant CYP450 inhibition, fluorometric, CYP2D6; assay type: in vitro ADME; design: from tissue; host or cells: pooled human liver microsomes; details: recombinant human CYP2D6 microsomal protein, read-out: percentage of inhibition at the highest concentration tested, CYP2D6
CYP2D6, sequence (P10635 whole entry): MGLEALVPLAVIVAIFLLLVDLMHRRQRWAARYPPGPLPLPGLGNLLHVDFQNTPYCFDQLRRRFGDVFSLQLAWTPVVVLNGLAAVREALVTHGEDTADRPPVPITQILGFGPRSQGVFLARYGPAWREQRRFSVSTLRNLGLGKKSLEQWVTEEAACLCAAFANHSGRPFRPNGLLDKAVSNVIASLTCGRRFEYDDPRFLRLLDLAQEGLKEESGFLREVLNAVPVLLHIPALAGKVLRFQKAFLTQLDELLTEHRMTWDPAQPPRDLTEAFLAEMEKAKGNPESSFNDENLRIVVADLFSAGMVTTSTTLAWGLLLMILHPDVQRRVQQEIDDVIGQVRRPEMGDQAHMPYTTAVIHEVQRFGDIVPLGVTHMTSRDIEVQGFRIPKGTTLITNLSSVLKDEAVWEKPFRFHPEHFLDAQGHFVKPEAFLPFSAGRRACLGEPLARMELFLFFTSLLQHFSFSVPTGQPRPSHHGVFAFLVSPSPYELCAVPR
Description: as §6

[11] = test system: CYP3A4 (activation of PXR in DPX2 cells); assay: CYP3A4 induction screen in DPX2 cells; assay type: cell-based, human; details: extent compared with rifampicine, mifepristone, androstanol
Description: The potential for in vitro induction of CYP3A4 was screened in DPX2 cells. The DPX2 cell line is a derivative of a human hepatocellular carcinoma cell line (HepG2) transformed with the human pregnane x receptor (PXR) and a reporter gene vector containing the enhancer region of CYP3A4. The potential for in vitro induction of CYP1A2 was screened in CYP1A2-DRE cells. The CYP1A2-DRE cell line is a stably transformed HepG2 cells with dioxin response elements (DRE) and reporter gene containing CYP1A2 promoter elements. The extent of CYP3A4 induction was determined by comparing the activation of PXR obtained with test article to that obtained with rifampicine (potent inducer), mifepristone (moderate inducer) and androstanol (weak inducer). The extent of CYP1A2 induction was determined by comparing the activation of the aryl hydrocarbon receptor (AhR) obtained with test article to that obtained with TCDD (potent inducer), omeprazole (moderate inducer), and 2-acetylaminofluorene (weak inducer).

[12] = target: CYP2C9 (Homo sapiens, UniProt P11712); assay: Recombinant CYP450 inhibition, Luciferin-H, CYP2C9; assay type: in vitro ADME; design: from tissue; host or cells: pooled human liver microsomes; details: highest concentration tested 10 μM
CYP2C9, sequence (P11712 whole entry, the tested form may be a part): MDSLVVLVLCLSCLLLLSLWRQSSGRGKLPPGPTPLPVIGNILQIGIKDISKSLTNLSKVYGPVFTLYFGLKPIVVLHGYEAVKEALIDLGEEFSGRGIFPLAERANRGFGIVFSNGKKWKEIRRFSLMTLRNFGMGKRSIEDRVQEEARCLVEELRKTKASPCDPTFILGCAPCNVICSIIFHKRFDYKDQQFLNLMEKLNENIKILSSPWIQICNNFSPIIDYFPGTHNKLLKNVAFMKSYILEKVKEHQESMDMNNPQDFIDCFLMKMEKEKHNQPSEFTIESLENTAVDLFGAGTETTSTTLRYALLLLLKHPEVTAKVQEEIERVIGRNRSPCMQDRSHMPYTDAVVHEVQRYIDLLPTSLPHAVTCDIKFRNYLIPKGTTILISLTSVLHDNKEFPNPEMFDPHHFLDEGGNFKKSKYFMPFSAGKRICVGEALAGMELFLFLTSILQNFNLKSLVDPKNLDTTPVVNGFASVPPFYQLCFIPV
Description: CYP2C9 inhibition was performed by incubating a luminogenic CYP450 substrate Luciferin-H with CYP2C9 and an NADPH regeneration system. Luminescence measured using a Fusion plate reader.

[13] = Table 6, N=4, read-out: Mean IC50 Values ± Standard Deviation, DNA Pol Gamma

EC50 [1]: 0.162 ± 0.0767 µM
Compound: Cc1cn([C@H]2C[C@H](N=[N+]=[N-])[C@@H](CO)O2)c(=O)[nH]c1=O [AZT, zidovudine, reference compound]

Compound: Cc1c2oc3c(C)ccc(C(=O)N[C@@H]4C(=O)N[C@H](C(C)C)C(=O)N5CCC[C@H]5C(=O)N(C)CC(=O)N(C)[C@@H](C(C)C)C(=O)O[C@@H]4C)c3nc-2c(C(=O)N[C@@H]2C(=O)N[C@H](C(C)C)C(=O)N3CCC[C@H]3C(=O)N(C)CC(=O)N(C)[C@@H](C(C)C)C(=O)O[C@@H]2C)c(N)c1=O [Act. D, actinomycin D, reference compound] (I: T[dV]P[Sar][NMeV] / II: T[dV]P[Sar][NMeV]; ester I:1-I:C, II:1-II:C; linker I:N-II:N via Actinocin(9to1))
IC50 ([2]; Table 5, preliminary data from a single experiment, read-out: Average IC50 Values, DNA Pol Gamma): 16.9 µM
IC50 [2, 13]: 11.8 ± 1.9 µM
IC50 ([3]; Table 5, read-out: Average IC50 Values ± Standard Deviation, DNA Pol Beta): 23 ± 10.4 µM
IC50 ([3]; Table 6, N=4, read-out: Mean IC50 Values ± Standard Deviation, DNA Pol Beta): 23 ± 10.4 µM
IC50 ([4]; Table 5, read-out: Average IC50 Values ± Standard Deviation, DNA Pol Alpha): 16.1 ± 11.2 µM
IC50 ([4]; Table 6, N=4, read-out: Mean IC50 Values ± Standard Deviation, DNA Pol Alpha): 16.1 ± 11.2 µM

Compound: CO[P@@](=O)(c1cc(C)cc(/C=C/C#N)c1)c1c(C(N)=O)[nH]c2ccc(Cl)c(F)c12 [Compound II, (2-Carbamoyl-5-chloro-4-fluoro-1H-indol-3-yl)-[3-((E)-2-cyano-vinyl)-5-methyl-phenyl]-(S)-phosphinic acid methyl ester]
EC50 [5]: 920 nM
EC50 [6]: 62 ± 19 nM
IC50 [7]: 3.21 µM
EC50 [8]: 0.277 ± 0.099 µM
EC50 [9]: 192 nM

Compound: CO[P@@](=O)(c1cc(C)cc(/C=C/C#N)c1)c1c(C(N)=O)[nH]c2ccc(Cl)cc12 [IV, (2-carbamoyl-5-chloro-1H-indol-3-yl)-[3-((E)-2-cyano-vinyl)-5-methyl-phenyl]-(S)-phosphinic acid methyl ester]
inhibition at 10 µM [10]: 29.1%
EC50 [6]: 0.2 ± 0.1 nM
IC50 ([7]; recombinant, highest concentration tested 10 μM, read-out: IC50, CYP3A4): 2.96 µM
EC50 [8]: 0.0003 µM
Induction, DPX2 (CYP3A4) [11]: Moderate (n = 1)
IC50 [12]: 3.38 µM

Compound: dideoxycytidine triphosphate [ddCTP, reference compound]
IC50 [2, 13]: 1.5 ± 0.6 µM
